Measurements published in PubChem BioAssay (NCI).
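Cultured in 96-well plates, cells were exposed to test compound for 48 hours across five concentrations. Abbreviation: GI50, concentration required for 50% inhibition of growth. TGI denotes the concentration required for complete inhibition of growth.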

Legend:
Experiment in all cases: NCI anticancer screen, dose series, 48 h; in the data active = GI50 below about 0.43 µM; inactive = the rest
786-0 renal = tested on: 786-0 renal
A498 renal = tested on: A498 renal
ACHN renal = tested on: ACHN renal
BT-549 breast = tested on: BT-549 breast
CAKI-1 renal = tested on: CAKI-1 renal
CCRF-CEM leukemia = tested on: CCRF-CEM leukemia
COLO 205 colon = tested on: COLO 205 colon
DU-145 prostate = tested on: DU-145 prostate
EKVX NSCLC = tested on: EKVX NSCLC
HCC-2998 colon = tested on: HCC-2998 colon
HCT-116 colon = tested on: HCT-116 colon
HCT-15 colon = tested on: HCT-15 colon
HOP-62 NSCLC = tested on: HOP-62 NSCLC
HOP-92 NSCLC = tested on: HOP-92 NSCLC
HS 578T breast = tested on: HS 578T breast
HT29 colon = tested on: HT29 colon
KM12 colon = tested on: KM12 colon
LOX IMVI melanoma = tested on: LOX IMVI melanoma
M14 melanoma = tested on: M14 melanoma
MALME-3M melanoma = tested on: MALME-3M melanoma
MCF7 breast = tested on: MCF7 breast
MDA-MB-231 breast = tested on: MDA-MB-231 breast
MDA-MB-435 = tested on: MDA-MB-435
NCI-H226 lung = tested on: NCI-H226 lung
NCI-H23 lung = tested on: NCI-H23 lung
NCI-H460 lung = tested on: NCI-H460 lung
NCI-H522 lung = tested on: NCI-H522 lung
NCI/ADR-RES ovarian = tested on: NCI/ADR-RES ovarian
OVCAR-3 ovarian = tested on: OVCAR-3 ovarian
OVCAR-4 ovarian = tested on: OVCAR-4 ovarian
OVCAR-5 ovarian = tested on: OVCAR-5 ovarian
RPMI-8226 leukemia = tested on: RPMI-8226 leukemia
RXF 393 renal = tested on: RXF 393 renal
SF-268 CNS = tested on: SF-268 CNS
SF-295 CNS = tested on: SF-295 CNS
SF-539 CNS = tested on: SF-539 CNS
SK-MEL-2 melanoma = tested on: SK-MEL-2 melanoma
SK-MEL-28 melanoma = tested on: SK-MEL-28 melanoma
SK-MEL-5 melanoma = tested on: SK-MEL-5 melanoma
SK-OV-3 ovarian = tested on: SK-OV-3 ovarian
SN12C renal = tested on: SN12C renal
SNB-19 CNS = tested on: SNB-19 CNS
SNB-75 CNS = tested on: SNB-75 CNS
SW-620 colon = tested on: SW-620 colon
T-47D breast = tested on: T-47D breast
TK-10 renal = tested on: TK-10 renal
U251 CNS = tested on: U251 CNS
UACC-62 melanoma = tested on: UACC-62 melanoma
UO-31 renal = tested on: UO-31 renal

CCCCCCCC/C(=C\C1=C(C)C(=O)C(OC)=C(OC)C1=O)C(=O)O
36.9 µM: TGI (OVCAR-4 ovarian)
29.9 µM: TGI (HCT-116 colon)
> 100 µM: TGI (786-0 renal) | TGI (A498 renal) | TGI (ACHN renal) | TGI (CAKI-1 renal) | TGI (COLO 205 colon) | TGI (HCC-2998 colon) | TGI (HCT-15 colon) | TGI (HOP-62 NSCLC) | TGI (HT29 colon) | TGI (KM12 colon) | TGI (M14 melanoma) | TGI (MALME-3M melanoma) | TGI (NCI-H226 lung) | TGI (NCI-H23 lung) | TGI (NCI-H460 lung) | TGI (NCI-H522 lung) | TGI (OVCAR-3 ovarian) | TGI (OVCAR-5 ovarian) | TGI (SF-295 CNS) | TGI (SK-MEL-2 melanoma) | TGI (SK-MEL-28 melanoma) | TGI (SK-MEL-5 melanoma) | TGI (SK-OV-3 ovarian) | TGI (SNB-19 CNS) | TGI (SNB-75 CNS) | TGI (SW-620 colon) | TGI (TK-10 renal) | TGI (UACC-62 melanoma) | TGI (UO-31 renal)
29.6 µM: TGI (HOP-92 NSCLC)
45.5 µM: TGI (LOX IMVI melanoma)
44.8 µM: TGI (MCF7 breast)
inactive: GI50 (786-0 renal) 62.7 µM | GI50 (A498 renal) 78.8 µM | GI50 (ACHN renal) 29 µM | GI50 (BT-549 breast) 24.2 µM | GI50 (CAKI-1 renal) 51.2 µM | GI50 (CCRF-CEM leukemia) 20.2 µM | GI50 (COLO 205 colon) > 100 µM | GI50 (DU-145 prostate) 25.4 µM | GI50 (EKVX NSCLC) 15.8 µM | GI50 (HCC-2998 colon) 66.2 µM | GI50 (HCT-116 colon) 16.3 µM | GI50 (HCT-15 colon) 63.6 µM | GI50 (HOP-62 NSCLC) 73.2 µM | GI50 (HOP-92 NSCLC) 13 µM | GI50 (HS 578T breast) 23.8 µM | GI50 (HT29 colon) 65.1 µM | GI50 (KM12 colon) 53.5 µM | GI50 (LOX IMVI melanoma) 19.9 µM | GI50 (M14 melanoma) > 100 µM | GI50 (MALME-3M melanoma) 51.3 µM | GI50 (MCF7 breast) 22.3 µM | GI50 (MDA-MB-231 breast) 21.4 µM | GI50 (MDA-MB-435) 18.8 µM | GI50 (NCI-H226 lung) 29.2 µM | GI50 (NCI-H23 lung) 57.7 µM | GI50 (NCI-H460 lung) 86.7 µM | GI50 (NCI-H522 lung) 78.1 µM | GI50 (NCI/ADR-RES ovarian) 27.1 µM | GI50 (OVCAR-3 ovarian) 34.1 µM | GI50 (OVCAR-4 ovarian) 19.9 µM | GI50 (OVCAR-5 ovarian) > 100 µM | GI50 (RPMI-8226 leukemia) 20.5 µM | GI50 (RXF 393 renal) 23.7 µM | GI50 (SF-268 CNS) 29.5 µM | GI50 (SF-295 CNS) 43 µM | GI50 (SF-539 CNS) 23.2 µM | GI50 (SK-MEL-2 melanoma) > 100 µM | GI50 (SK-MEL-28 melanoma) 43.4 µM | GI50 (SK-MEL-5 melanoma) 36.7 µM | GI50 (SK-OV-3 ovarian) > 100 µM | GI50 (SNB-19 CNS) 75.9 µM | GI50 (SNB-75 CNS) 67.7 µM | GI50 (SW-620 colon) 35 µM | GI50 (T-47D breast) 21.9 µM | GI50 (TK-10 renal) > 100 µM | GI50 (U251 CNS) 19.9 µM | GI50 (UACC-62 melanoma) 33.8 µM | GI50 (UO-31 renal) 40.3 µM
83.9 µM: TGI (HS 578T breast)
97.5 µM: TGI (NCI/ADR-RES ovarian)
94 µM: TGI (DU-145 prostate)
44.1 µM: TGI (RXF 393 renal)
31.6 µM: TGI (EKVX NSCLC)
54.6 µM: TGI (BT-549 breast)
42.5 µM: TGI (CCRF-CEM leukemia)
37 µM: TGI (MDA-MB-435)
70.3 µM: TGI (SF-268 CNS)
29.2 µM: TGI (SN12C renal)
active: GI50 (SN12C renal) 198 nM
75.5 µM: TGI (SF-539 CNS)
51.2 µM: TGI (MDA-MB-231 breast)
41.8 µM: TGI (U251 CNS)
48.8 µM: TGI (T-47D breast)
49.9 µM: TGI (RPMI-8226 leukemia)
